In data set [1] the test system is IL-1α production in human synovial cells. Nature of the data set: Inhibition of IL-1α production in human synovial cells. It counts as cell-based. The settings on record: TPA and A 23187 stimulation, 40 hours. The protocol:
(§1) Human synovial membrane obtained at an operation was treated with collagenase to obtain synovial cells, which were subcultured several times and inoculated on a 12-well culture dish. On reaching to confluence, the cells were provided to the test described below. The synovial cells produce IL-1 but release only a little amount and accordingly are appropriate cells to study an inhibition or an acceleration of IL-1 intracellular production.
(§2) Each DMSO (dimethylsulfoxide) solution containing one of ACP, PAL and PAC separately in a concentration of 400 times that of the final test and DMSO solution not containing any of the compound as a control, were diluted to 40 times in its volume with a medium containing fetal bovine serum (hereinafter referred to as "FBS") [Ham Medium]. 100 μl of the diluted solution was added to each well and further, 800 μl of the medium [Ham] was added to each well. […] The concentration of TPA and the ionophore in the medium were adjusted so that their final concentration in the well became 0.1 μg/ml and 0.2 μg/ml, respectively and a production of IL-1 was stimulated. Final volume of the liquid (medium) per well was 1 ml/well. After 40 hours of culture, liquid portion was removed from each well and 1 ml of a Ham medium was added to the remaining cells in each well. Freeze-thawing was repeated on the medium containing the cells several times to destroy all the cells in the medium and supernatants containing intracellular substances were obtained by centrifugation. IL-1α and IL-1β in the supernatant were determined by ELISA method using a prescribed enzyme-antibody-complex (manufactured by OHTSUKA SEIYAKU, Co., Ltd.) as intracellular IL-1s. [Refer to ENSHO, vol.

The nature of data set [2]: Acute toxicity (LD50) of PAC in male mice. It counts as in vivo. The note with it: mouse, in vivo, ip, intraperitoneal, observed 8 days.
The subject of data set [3] is proteoglycan (PG) in cultured cartilage cells. Nature of the data set: Synthesis, release and remaining amount of proteoglycan (PG) in cultured cartilage cells. Type of data set: cell-based, rat. The note with it: for effect on PG synthesis / inhibition of PG release: PAL 1 to 10 μM, PAC 10 to 100 μM; for effect on PG synthesis: 24 hours; for inhibition of PG release: control release 100%; for remaining amount of PG in the matrix: PAL between 1 and 3.3 μM, PAC between 10 and 100 μM. As to the method:
Costal cartilage was aseptically taken out from male SD rats of 4 weeks age, enzymatically treated to separate it into single cells, then inoculated into a 12-well culture dish and cultured under an atmosphere containing 5% CO2 at 37° C. After the chondrocytes had been grown to confluence, 1 to 10 μM of PAL or 10 to 100 μM of PAC was added and three hours later, 2 μCi of Na2^35 SO4 was further added to each well. Twenty four hours later, the synthesis amount in, release amount from and remaining amount of PG in the matrix were determined using amount of ^35 S as an index. […] In the Figures, the PG release in the control was defined as 100%. […] In FIGS. 4(a), 4(b) and 4(c), the released amount of PG means the amount representing the PG degraded in and released from cartilage matrixes, which was calculated on a basis of ^35 S in the culture medium. The remaining amount of PG means the PG not degraded in the matrixes and was also calculated in the same way as above. Sum of the released and the remaining amounts of PG is thought to be a synthesized PG.

For data set [4], the system named is IL-1 release from cultured cartilage cells. Nature of the data set: Inhibition of IL-1 release from cultured cartilage cells. The note with it: 3.3 μM; TPA and A 23187 stimulation, 24 hours. It counts as cell-based, rabbit. The protocol:
Cartilages were aseptically taken out from knee and shoulder joints of young rabbit, treated with a Ham medium containing 0.2% collagenase and separated each other into single cells. After washed two times with a Ham medium containing 10% FBS, the cells were dispersed into the Ham medium containing 10% FBS at a concentration of 10^5 cells/ml. […] After 24 hours of cultivation, IL-1 released into each of the supernatants was measured by a bioassay applying an incorporated amount of ^3 H-thymidine (^3 H-TdR) as an index. […] In the Figure, "Intact" means a case TPA and the ionophore were not added and accordingly no stimulation of IL-1 release was given.

Data set [5] concerns proteoglycan (PG) release under IL-1α. Nature of the data set: Proteoglycan (PG) release from prelabelled cultured cartilage matrix with addition of IL-1α. The settings on record: for inhibition of PG release under IL-1α: 20 units of IL-1α. It counts as cell-based. The protocol:
Further, to a cultured cartilage matrix, in which PG is prelabelled in advance with 1 μCi of Na2^35 SO4, 20 units of IL-1α was added to each group including control group and 10 μM of PAL, 100 μM of PAL or 10 μM of ACP was added to each test group and studied the effect of each compound to the PG release from the cells.

Data set [6] relates to IL-1β production in human synovial cells. Kind of data set: Inhibition of IL-1β production in human synovial cells. Type of data set: cell-based. The note with it: TPA and A 23187 stimulation, 40 hours. As to the method: as §1, §2
Data set [7] deals with IL-1 release from human monocyte. Kind of data set: Inhibition of IL-1 (IL-1α and IL-1β) release from human monocyte. It counts as cell-based. The settings on record: Homo sapiens, Monocyte, read-out: concentration at which the release of IL-1 is significantly inhibited; LPS 10 μg/ml, 42 hours. The protocol:
Monocyte were isolated from human venous blood by density-gradient centrifugation using a Ficoll-paque solution and obtained the cells having a purity of not less than 95% by purifying with a monocyte-separating plate. After dispersing the cells in a medium, RPMI 1640, containing 10% of FBS, the monocyte were inoculated in a culture dish in a ratio of 10^6 cells/3 ml/well and cultured under an atmosphere containing 5% CO2 at 37° C. for 30 minutes. Then, each 15 μl of DMSO solution of one of ACP, PAL and PAC was added to each well (a final DMSO concentration of 0.5%) and 30 minutes later a lipopolysaccharide (hereinafter referred to as "LPS"), a substance to stimulate IL-1 production, was added at a final LPS concentration of 10 μg/ml and they were cultured for 42 hours. Then, the reacted culture medium was recovered and accompanied cells with the medium were separated by centrifugation and obtained the supernatant free of cell. IL-1α and IL-1β released from the cells were measured by ELISA method in the same manner as in item (i) above.

Data set [8] concerns leukocyte migration. The note with it: cited from earlier work.
Data set [9] relates to granuloma proliferation. The settings on record: cited from earlier work.
The nature of data set [10]: Acute toxicity (LD50) of PAL in female Jcl:ICR mice. The note with it: mouse, in vivo. As to the method: For oral administration, a suspension of PAL dispersed in an aqueous solution of 0.2% CMC was prepared (a part of PAL was dissolved in the solution) and administered to the animals via a stomach sonde. For intraperitoneal administration, a suspension of PAL dispersed in an aqueous physiological saline solution was prepared (a part of PAL was dissolved in the solution) and injected to the animals with a syringe.

Data set [11] concerns adjuvant arthritis. The settings on record: in vivo; cited from earlier work.
For data set [12] the following is noted: in vivo; cited from earlier work.
Data set [13] in a line: Acute toxicity (LD50) of ACP in rats. Type of data set: in vivo. The settings on record: for LD50 at 168 h: in vivo, male; for LD50: female, 10080 min. As to the method: (§3) For oral administration, a suspension of ACP dispersed in an aqueous solution of 0.5% methylcellulose and 0.4% Tween 80 (nonionic surfactant, manufactured by TOKYO KASEI, Co., Ltd.) was prepared and administered to the animals via a stomach sonde. For subcutaneous administration, a suspension of ACP dispersed in an aqueous physiological saline solution containing 0.5% of carboxymethyl cellulose sodium (hereinafter referred to as "CMC") was prepared and injected to the animals with a syringe.

Data set [14] can be described thus: Acute toxicity (LD50) of ACP in mice. It counts as in vivo. The note with it: for LD50 at 168 h: in vivo, male; for LD50: female, 10080 min. The protocol:
as §3

The subject of data set [15] is proteoglycan (PG) release under IL-1α. Nature of the data set: Proteoglycan (PG) release from prelabelled cultured cartilage matrix with addition of IL-1α. It counts as cell-based. The settings on record: 20 units of IL-1α, compared to control without IL-1; prelabelled 35S as 100%.

These results are taken from US4997850A, “Treating agent for osteroarthritis” (Kureha Kagaku Kogyo Kabushiki Kaisha, priority 1989, dated 1991).

Regarding `O=C(O)c1ccc(O)c(O)c1` [PAC, 3,4-dihydroxybenzoic acid], the “inhibiting activity of IL-1α production” value in data set [1] (33 μM) is given as “inhibiting activity of IL-1α only”. Moreover, the LD50 at 192 h in [2] was at least 400 mg/kg. In [3], the “effect on PG synthesis” value is “no effect”, the “inhibition of PG release” value was “exhibited inhibiting activities on the PG release” and the “remaining amount of PG in the matrix” value is “increased in proportion to the adding amount”. Besides, in data set [4], the “inhibition of IL-1 release from cartilage cells” value (“inhibition of IL-1 release” below) is given as “inhibit the release of IL-1”. The “inhibiting activity on PG release (further compounds)” value in data set [5] (concentration not given) is “same effects”. Also, the “inhibiting activity of IL-1β production” value in [6] (33 μM) is “inhibiting activity of IL-1α only”.

In the case of `O=Cc1ccc(O)c(O)c1` [PAL, 3,4-dihydroxybenzaldehyde], the minimal effective concentration in [7] was found to be 0.33 µM. The “inhibiting activity of IL-1α production” value in [1] (33 μM) is “strong inhibiting activity”. Besides, in data set [8], the “suppressing activity of leukocyte migration” value was “suppressing activity”. In data set [3], the “effect on PG synthesis” value is “no effect”, the “inhibition of PG release” value is on record as “exhibited inhibiting activities on the PG release” and the “remaining amount of PG in the matrix” value is given as “increased in proportion to the adding amount”. Also, the “suppressing activity of granuloma proliferation” value in data set [9] is given as “suppressing activity”. The “inhibition of IL-1 release” value in data set [4] was “inhibit the release of IL-1”. Besides, in [5] (PAL 10 μM and 100 μM), the “inhibition of PG release under IL-1α” value is listed as “inhibited the release amount proportionally to the amount added”. The molecule further gave an LD50 at 168 h in data set [10] (ip, intraperitoneal) of 404 mg/kg. In data set [10] (oral), this molecule gave an LD50 at 168 h of 1500 mg/kg. For the same molecule, the “inhibiting activity of IL-1β production” value in data set [6] (33 μM) is “strong inhibiting activity”. The “suppressing activity of adjuvant arthritis” value in data set [11] is given as “suppressing activity”. Besides, the “toxicity to mammals including human” value in data set [12] was “very low toxic”.

Take `CC(=O)Oc1ccc(C(OC(C)=O)OC(C)=O)cc1OC(C)=O` [ACP, 3,4-diacetoxybenzylidene diacetate]: the LD50 at 168 h is above 4000 mg/kg in data set [13] (sc, subcutaneous, Jcl:Wistar rat); above 5000 mg/kg in [13] (oral, Sprague-Dawley rat); above 4000 mg/kg in data set [14] (sc, subcutaneous, Jcl:ICR mouse); above 5000 mg/kg in data set [14] (oral, CD-1 mouse). The median lethal dose (LD50) in [13] (oral, Sprague-Dawley rat) is listed as above 5 g/kg; in [13] (subcutaneous, Jcl:Wistar rat), above 4 g/kg; in [14] (oral, CD-1 mouse) it was above 5 g/kg; in data set [14] (subcutaneous, Jcl:ICR mouse), above 4 g/kg. Besides, the minimal effective concentration in [7] was determined as 0.67 µM. In [1] (10 μM), the “inhibiting activity of IL-1α production” value is “strong inhibiting activity”. Further, the “suppressing activity of leukocyte migration” value in [8] was “suppressing activity”. For the same molecule, the “effect on PG synthesis, release and remaining amount (ACP)” value in data set [3] (compared with PAL and PAC, concentration not given) is given as “effect having similar tendency”. Also, the “suppressing activity of granuloma proliferation” value in data set [9] is “suppressing activity”. Further, the “inhibition of IL-1 release” value in [4] is “inhibit the release of IL-1”. Moreover, the “inhibition of PG release under IL-1α” value in data set [5] (10 μM) is on record as “inhibited the release amount”. Besides, the “inhibiting activity of IL-1β production” value in data set [6] (10 μM) is on record as “strong inhibiting activity”. Further, the “suppressing activity of adjuvant arthritis” value in data set [11] is given as “suppressing activity”. In data set [12], the “toxicity to mammals including human” value is given as “very low toxic”.

B1: IL-1α: interleukin 1 alpha, added to cultured cartilage matrix to increase proteoglycan release (protein, UniProt P01583 113-271, looked up)
Interleukin-1 alpha: SAPFSFLSNVKYNFMRIIKYEFILNDALNQSIIRANDQYLTAAALHNLDEAVKFDMGAYKSSKDDAKITVILRISKTQLYVTAQDEDQPVLLKEMPEIPKTITGSETNLLFFWETHGTKNYFTSVAHPNLFIATKQDYWVCLAGGPPSITDFQILENQA
Take B1: the “increase of PG release by IL-1α” value in data set [15] is “about 20%”.

As a reminder, the LD50 is the dose at which mortality reaches 50%. Read a high LD50 as lower toxicity.
